Where two headings read alike, the source gives them in different places.
Columns and labels:
Experiment in all cases: biochemical
Set-up in all cases: DiscoveRx KINOMEscan active site-directed competition binding; percent of control kinase bound to immobilised ligand
NEK1 = biological target: T1, NEK1 (Homo sapiens, UniProt Q96PY6)
T1 sequence (Q96PY6 1-1258): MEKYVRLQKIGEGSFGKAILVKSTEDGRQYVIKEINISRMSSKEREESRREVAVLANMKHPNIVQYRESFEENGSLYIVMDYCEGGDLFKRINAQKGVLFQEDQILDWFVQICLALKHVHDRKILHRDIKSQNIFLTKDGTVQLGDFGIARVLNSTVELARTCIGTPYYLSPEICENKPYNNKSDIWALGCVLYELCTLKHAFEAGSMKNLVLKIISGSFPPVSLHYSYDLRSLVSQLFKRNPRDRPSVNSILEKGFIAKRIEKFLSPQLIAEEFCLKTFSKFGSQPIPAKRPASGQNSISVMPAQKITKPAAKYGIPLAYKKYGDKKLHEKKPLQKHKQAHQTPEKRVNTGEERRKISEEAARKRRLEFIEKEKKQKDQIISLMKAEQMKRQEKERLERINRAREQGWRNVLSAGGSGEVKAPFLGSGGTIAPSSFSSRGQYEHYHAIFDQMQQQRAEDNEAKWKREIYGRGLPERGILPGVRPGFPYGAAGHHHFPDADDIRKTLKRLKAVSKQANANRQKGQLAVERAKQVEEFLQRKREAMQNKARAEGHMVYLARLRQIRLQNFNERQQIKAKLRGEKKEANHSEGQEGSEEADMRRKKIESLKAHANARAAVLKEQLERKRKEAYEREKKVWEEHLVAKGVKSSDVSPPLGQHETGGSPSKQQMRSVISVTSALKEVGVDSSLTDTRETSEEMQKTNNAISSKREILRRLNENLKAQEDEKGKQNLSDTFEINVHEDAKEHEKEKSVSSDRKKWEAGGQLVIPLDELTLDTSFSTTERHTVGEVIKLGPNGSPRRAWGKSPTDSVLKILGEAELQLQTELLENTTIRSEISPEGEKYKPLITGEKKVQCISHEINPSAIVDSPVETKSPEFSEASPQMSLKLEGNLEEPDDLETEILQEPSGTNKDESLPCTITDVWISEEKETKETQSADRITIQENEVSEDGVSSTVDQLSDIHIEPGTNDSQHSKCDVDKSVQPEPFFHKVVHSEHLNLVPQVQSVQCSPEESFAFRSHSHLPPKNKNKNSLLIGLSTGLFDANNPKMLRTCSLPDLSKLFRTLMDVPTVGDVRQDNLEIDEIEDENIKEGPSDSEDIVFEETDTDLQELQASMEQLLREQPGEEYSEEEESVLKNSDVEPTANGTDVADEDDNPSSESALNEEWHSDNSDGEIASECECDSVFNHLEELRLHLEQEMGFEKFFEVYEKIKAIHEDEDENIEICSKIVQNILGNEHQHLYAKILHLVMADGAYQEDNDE

CLK2 = CLK2 (Homo sapiens, UniProt P49760)
Sequence of CLK2 (P49760 whole entry): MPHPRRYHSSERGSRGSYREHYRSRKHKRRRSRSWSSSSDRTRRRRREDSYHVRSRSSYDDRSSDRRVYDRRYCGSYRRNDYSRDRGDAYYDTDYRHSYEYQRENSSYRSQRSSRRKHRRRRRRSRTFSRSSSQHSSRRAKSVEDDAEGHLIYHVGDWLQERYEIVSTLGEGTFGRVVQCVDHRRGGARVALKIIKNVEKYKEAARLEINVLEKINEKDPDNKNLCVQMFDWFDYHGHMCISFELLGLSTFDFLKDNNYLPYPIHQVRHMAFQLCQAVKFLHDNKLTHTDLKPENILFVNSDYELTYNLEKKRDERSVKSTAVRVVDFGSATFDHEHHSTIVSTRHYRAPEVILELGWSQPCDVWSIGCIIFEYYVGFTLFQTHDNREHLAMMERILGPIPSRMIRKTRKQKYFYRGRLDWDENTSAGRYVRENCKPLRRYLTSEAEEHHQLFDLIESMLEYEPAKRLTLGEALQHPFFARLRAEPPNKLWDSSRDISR

PRKR = biological target: T2, PRKR (Homo sapiens, UniProt P19525)
T2 construct: gene EIF2AK2
T2 sequence (P19525 whole entry): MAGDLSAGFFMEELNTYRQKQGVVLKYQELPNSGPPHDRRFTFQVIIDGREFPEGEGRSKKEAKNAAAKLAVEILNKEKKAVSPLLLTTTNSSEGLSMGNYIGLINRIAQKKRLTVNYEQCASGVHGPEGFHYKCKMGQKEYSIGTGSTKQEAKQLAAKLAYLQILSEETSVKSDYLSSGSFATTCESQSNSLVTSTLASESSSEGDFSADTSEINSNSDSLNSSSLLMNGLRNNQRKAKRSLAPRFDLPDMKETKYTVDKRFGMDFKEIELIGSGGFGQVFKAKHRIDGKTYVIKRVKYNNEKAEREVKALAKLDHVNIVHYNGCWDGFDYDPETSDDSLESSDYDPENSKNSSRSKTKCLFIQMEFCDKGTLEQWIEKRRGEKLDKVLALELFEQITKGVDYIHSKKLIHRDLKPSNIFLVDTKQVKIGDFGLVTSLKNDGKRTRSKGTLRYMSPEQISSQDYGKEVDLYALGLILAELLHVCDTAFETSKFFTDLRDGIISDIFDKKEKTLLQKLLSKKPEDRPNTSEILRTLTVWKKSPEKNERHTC

SGK3 = biological target: T3, SGK3 (Homo sapiens, UniProt Q96BR1)
T3 sequence (Q96BR1 1-496): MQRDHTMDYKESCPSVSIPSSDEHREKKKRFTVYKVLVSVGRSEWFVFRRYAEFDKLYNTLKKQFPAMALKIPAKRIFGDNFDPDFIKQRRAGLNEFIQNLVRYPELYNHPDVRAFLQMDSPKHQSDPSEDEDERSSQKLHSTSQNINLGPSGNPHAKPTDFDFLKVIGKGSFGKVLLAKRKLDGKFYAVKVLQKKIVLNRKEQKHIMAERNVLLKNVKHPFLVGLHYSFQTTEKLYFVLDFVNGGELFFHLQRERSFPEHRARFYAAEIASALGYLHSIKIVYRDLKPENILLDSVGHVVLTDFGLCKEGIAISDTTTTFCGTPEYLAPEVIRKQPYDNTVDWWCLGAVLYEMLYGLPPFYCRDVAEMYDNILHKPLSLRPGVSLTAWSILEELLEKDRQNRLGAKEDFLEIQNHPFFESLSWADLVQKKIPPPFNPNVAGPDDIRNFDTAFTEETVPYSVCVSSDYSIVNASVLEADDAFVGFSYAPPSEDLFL

CHEK1 = biological target: T4, CHEK1 (Homo sapiens, UniProt O14757)
T4 sequence (O14757 1-476): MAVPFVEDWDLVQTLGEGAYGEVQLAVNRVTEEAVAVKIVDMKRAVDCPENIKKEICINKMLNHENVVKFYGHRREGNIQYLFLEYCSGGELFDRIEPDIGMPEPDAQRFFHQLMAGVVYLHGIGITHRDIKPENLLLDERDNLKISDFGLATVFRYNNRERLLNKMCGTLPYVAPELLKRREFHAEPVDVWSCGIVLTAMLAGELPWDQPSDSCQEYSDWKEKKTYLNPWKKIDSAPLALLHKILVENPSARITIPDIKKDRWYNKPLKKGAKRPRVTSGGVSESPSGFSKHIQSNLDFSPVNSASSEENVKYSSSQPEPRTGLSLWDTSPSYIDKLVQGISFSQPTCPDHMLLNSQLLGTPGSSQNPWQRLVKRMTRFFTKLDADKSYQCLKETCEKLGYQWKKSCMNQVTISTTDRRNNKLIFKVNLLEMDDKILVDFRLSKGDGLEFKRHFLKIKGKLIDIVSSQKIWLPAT

EIF2AK1 = EIF2AK1 (Homo sapiens, UniProt Q9BQI3)
Sequence of EIF2AK1 (Q9BQI3 whole entry): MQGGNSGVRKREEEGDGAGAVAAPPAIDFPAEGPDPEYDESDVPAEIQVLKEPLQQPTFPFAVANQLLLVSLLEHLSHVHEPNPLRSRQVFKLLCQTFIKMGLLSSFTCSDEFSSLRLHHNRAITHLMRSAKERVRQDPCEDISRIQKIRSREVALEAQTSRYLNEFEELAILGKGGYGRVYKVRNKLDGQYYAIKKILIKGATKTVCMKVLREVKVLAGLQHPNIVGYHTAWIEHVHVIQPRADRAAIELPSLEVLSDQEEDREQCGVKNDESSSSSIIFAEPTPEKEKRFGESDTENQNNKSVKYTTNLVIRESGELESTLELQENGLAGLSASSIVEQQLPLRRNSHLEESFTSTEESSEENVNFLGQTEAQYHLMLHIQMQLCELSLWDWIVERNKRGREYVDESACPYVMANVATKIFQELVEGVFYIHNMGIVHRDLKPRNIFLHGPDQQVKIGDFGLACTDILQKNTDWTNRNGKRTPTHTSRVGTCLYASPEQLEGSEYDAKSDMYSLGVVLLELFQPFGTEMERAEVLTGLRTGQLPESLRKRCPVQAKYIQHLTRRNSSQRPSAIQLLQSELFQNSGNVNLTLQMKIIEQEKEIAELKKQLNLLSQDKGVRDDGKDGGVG

[1] = biological target: T5, ABL1(M351T)-phosphorylated (Homo sapiens, UniProt P00519, M351T)
T5 construct: phosphorylated

[2] = read-out: Talazoparib (BMN 673) / %Ctrl @ 10000nM
[3] = read-out: Olaparib / %Ctrl @ 10000nM
[4] = read-out: Niraparib (MK-4827) / %Ctrl @ 10000nM
[5] = read-out: Rucaparib / %Ctrl @ 10000nM, binding competition, % of control

`Cn1ncnc1[C@H]1c2n[nH]c(=O)c3cc(F)cc(c23)N[C@@H]1c1ccc(F)cc1` [Talazoparib] showed a percent of control binding at 10 µM (NEK1; [2]) of 80%, a percent of control binding at 10 µM (CLK2; [2]) of 94% and a percent of control binding at 10 µM (PRKR; [2]) of 78%. For the same compound, the percent of control binding at 10 µM (SGK3; [2]) was 100%, the percent of control binding at 10 µM (CHEK1; [2]) was 86% and the percent of control binding at 10 µM (EIF2AK1; [2]) was 100%. The percent of control binding at 10 µM [1, 2] was 98%.
`O=C(c1cc(Cc2n[nH]c(=O)c3ccccc23)ccc1F)N1CCN(C(=O)C2CC2)CC1` [Olaparib] showed a percent of control binding at 10 µM (NEK1; [3]) of 74%, a percent of control binding at 10 µM (CLK2; [3]) of 100% and a percent of control binding at 10 µM (PRKR; [3]) of 94%. It also gave a percent of control binding at 10 µM (SGK3; [3]) of 79%, a percent of control binding at 10 µM (CHEK1; [3]) of 79% and a percent of control binding at 10 µM (EIF2AK1; [3]) of 83%. It also gave a percent of control binding at 10 µM [1, 3] of 91%.
Work on `NC(=O)c1cccc2cn(-c3ccc([C@@H]4CCCNC4)cc3)nc12` [Niraparib] yielded a percent of control binding at 10 µM (NEK1; [4]) of 98%, a percent of control binding at 10 µM (CLK2; [4]) of 36% and a percent of control binding at 10 µM (PRKR; [4]) of 91%. The percent of control binding at 10 µM (SGK3; [4]) was 98%, the percent of control binding at 10 µM (CHEK1; [4]) was 72% and the percent of control binding at 10 µM (EIF2AK1; [4]) was 93%. The percent of control binding at 10 µM [1, 4] was 100%.
Compound `CNCc1ccc(-c2[nH]c3cc(F)cc4c3c2CCNC4=O)cc1` [Rucaparib] has a percent of control binding at 10 µM (NEK1; [5]) of 90%, a percent of control binding at 10 µM (CLK2; [5]) of 32% and a percent of control binding at 10 µM (PRKR; [5]) of 76%. The percent of control binding at 10 µM (SGK3; [5]) was 38%, the percent of control binding at 10 µM (CHEK1; [5]) was 100% and the percent of control binding at 10 µM (EIF2AK1; [5]) was 72%. The percent of control binding at 10 µM [1, 5] was 75%.

From publication PMC7026418, “The kinase polypharmacology landscape of clinical PARP inhibitors” (Scientific Reports, 2020)
